One experiment deals with bovine thrombin (Bos taurus, UniProt P00735). The experiment in a line: Simultaneous chromogenic determination of thrombin inhibition in enriched normal plasma (Tos-Gly-Pro-Arg-Basic Blue 49, 575 nm). It counts as biochemical. On the procedure: (§1) The following components were mixed to form one reaction: • 10 μl sample • 10 μl pool of normal human plasma • 40 μl substrate reagent (4 mM Z-D-Leu-Gly-Arg-ANBA-methylamide, 0.8 mM Tos-Gly-Pro-Arg-Basic Blue 49 in mannitol buffer, pH 4.0) • 100 μl factor Xa reagent (0.75 U/ml human factor Xa in 4.5 g/l TRIS, 9 g/l NaCl, 0.56 g/l EDTA, pH 8.0) • 100 μl thrombin reagent (5 U/ml bovine thrombin in 1.2 g/l TRIS, pH 8.2)
(§2) The sample used was normal human plasma. Factor Xa cleaves ANBA from the factor Xa-specific peptide substrate Z-D-Leu-Gly-Arg-ANBA-methylamide, increasing over time the optical density in the reaction at a wavelength of 405 nm. At the same time, thrombin cleaves Basic Blue 49 from the thrombin-specific peptide substrate Tos-Gly-Pro-Arg-Basic Blue 49, increasing over time the optical density in the reaction at a wavelength of 575 nm.
(§3) The measurements of the optical densities of the reaction at 405 nm and 575 nm and the evaluation of the reaction kinetics were carried out simultaneously in a fully automated Sysmex® CS-2000i coagulation analyzer. To measure the optical densities, the reaction was irradiated alternately with light of the aforementioned wavelengths, and the absorbance of the light, caused by the coloration of the reaction, was determined as a function of wavelength and time.
Normal plasma was enriched with various concentrations of rivaroxaban, a specific factor Xa inhibitor, and/or of argatroban, a specific thrombin inhibitor, and used as a sample in a method as per example 1.
(§4) The increases in the reaction kinetics for normal plasma without inhibitors were defined as 100% of the respective enzyme activity.

The target of the next experiment is human factor Xa (Homo sapiens, UniProt P00742). Description: Simultaneous chromogenic determination of factor Xa inhibition in enriched normal plasma (Z-D-Leu-Gly-Arg-ANBA-methylamide, 405 nm). The experiment is classed as biochemical. On the procedure: as §1, §2, §3, §4
Chain of human factor Xa (P00742 235-488 limits assumed): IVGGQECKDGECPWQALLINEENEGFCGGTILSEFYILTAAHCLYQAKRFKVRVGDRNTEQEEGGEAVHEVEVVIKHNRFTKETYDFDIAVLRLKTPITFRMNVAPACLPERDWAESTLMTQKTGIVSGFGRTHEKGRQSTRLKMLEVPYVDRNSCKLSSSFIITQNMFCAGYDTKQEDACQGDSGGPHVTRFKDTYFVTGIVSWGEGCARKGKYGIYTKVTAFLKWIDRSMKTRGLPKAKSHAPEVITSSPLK
Chain of human factor Xa (P00742 41-179 partner limits assumed): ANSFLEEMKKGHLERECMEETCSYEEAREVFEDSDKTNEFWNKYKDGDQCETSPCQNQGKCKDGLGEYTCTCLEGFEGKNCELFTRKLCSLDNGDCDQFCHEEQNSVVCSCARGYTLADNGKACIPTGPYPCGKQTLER

In the case of `CC1CNc2c(cccc2S(=O)(=O)N[C@@H](CCCNC(=N)N)C(=O)N2CC[C@@H](C)C[C@@H]2C(=O)O)C1` (stereo partly drawn) [Argatroban, argatroban], the inhibition at 0.375 µg/mL at bovine thrombin (normal plasma enriched with argatroban 375 ng/ml, rivaroxaban 0 ng/ml) worked out at 18%; at human factor Xa (normal plasma enriched with argatroban 375 ng/ml, rivaroxaban 0 ng/ml, read-out: F Xa inhibition [%]), 0%. Moreover, the inhibition at 0.75 µg/mL on bovine thrombin (normal plasma enriched with argatroban 750 ng/ml, rivaroxaban 0 ng/ml) stood at 31%; on human factor Xa (normal plasma enriched with argatroban 750 ng/ml, rivaroxaban 0 ng/ml, read-out: F Xa inhibition [%]) it was 0%. Also, on bovine thrombin (samples having an increased argatroban concentration, irrespective of the rivaroxaban concentration), the “inhibition of thrombin activity, in words (FIG. 2)” value was “increased thrombin inhibition”.

As for `O=C(NC[C@H]1CN(c2ccc(N3CCOCC3=O)cc2)C(=O)O1)c1ccc(Cl)s1` [Rivaroxaban, rivaroxaban], the inhibition at 0.25 µg/mL stood at 5% on bovine thrombin (normal plasma enriched with rivaroxaban 250 ng/ml, argatroban 0 ng/ml) and 65% at human factor Xa (normal plasma enriched with rivaroxaban 250 ng/ml, argatroban 0 ng/ml, read-out: F Xa inhibition [%]). Further, on human factor Xa (normal plasma enriched with rivaroxaban 125 ng/ml, argatroban 0 ng/ml, read-out: F Xa inhibition [%]), the inhibition at 0.125 µg/mL worked out at 42%. Moreover, on human factor Xa (samples having an increased rivaroxaban concentration, irrespective of the argatroban concentration), the “inhibition of factor Xa activity, in words (FIG. 1)” value is “increased factor Xa inhibition”.

In general, inhibition refers to the percentage by which the read-out fell short of the control.

Source of the values: US8932826B2, “Method for simultaneously determining multiple coagulation proteases” (Siemens Healthcare Diagnostics Products GmbH, priority 2010, dated 2015).
